Reference: patent US11684660B2, “Human PD1 peptide vaccines and uses thereof” (OHIO STATE INNOVATION FOUNDATION, priority 2017, dated 2023)
No end group written: not given here.

Experiments:
Nivolumab = test: BIACORE SPR binding to immobilized Nivolumab; conditions: 1 μM peptide
Method: (§1) 1 μM BSA was used as the negative control. The chip was regenerated by 10 mM Glycine-HCl, pH 2.5(FIG. 3E).
(§2) 1 μM of various PD-1 peptides were injected over the chip for 1 min at 10 μl/min followed by 1 min dissociation and then 1 min regeneration with 10 mM Glycine-HCl, pH 2.5 for each run.

[1] = molecular target: T1, extracellular domain of human PD-L1 (hPD-L1) (Homo sapiens, UniProt Q9NZQ7); test: BIACORE SPR binding to immobilized rhPD-L1; conditions: 1 μM peptide
T1 construct: Recombinant hPD-L1 ectodomain was immobilized onto the gold surface of a CM5 sensor chip
Method: To test the activity of all the selected peptides, surface plasmon resonance (SPR) spectroscopy (BIACORE™ T200, at […]) was used to measure their binding affinities to the extracellular domain of human PD-L1 (hPD-L1). Recombinant hPD-L1 ectodomain was immobilized onto the gold surface of a CM5 sensor chip by direct amine coupling.
as §1, §2

[2] = system: tumor infiltrating lymphocytes; test: Analysis of tumor infiltrating lymphocytes from peptide-vaccinated mice; assay type: in vivo, Balb/c mice
Method: CD4 (20A) and CD8 (20B) T cells were determined by flow cytometry (gated on CD45+ cells). Foxp3+CD25+CD4 Tregs ([…]) were determined by intracellular staining (gated on CD45+CD4+ cells). […] Group means were calculated and compared with Anova
FIGS. 21A and 21B show Analysis of tumor infiltrating lymphocytes from peptide-vaccinated mice. […] Tumor infiltrating cells were isolated from combined tumor tissue from […] (group A to F) of treated mice in first in vivo experiment. Tumor infiltrating cells were isolated from each mouse in group 5 and 6 from second in vivo experiment. CD4 and CD8 cells were determined by flow cytometry (gated on CD45+ infiltrating cells). FoxP3 expression on CD25+CD4+ T cells were determined by intracellular staining (gated on CD45+CD4+ cells). […] CD4 and CD8 cells were determined by flow cytometry (gated on CD45+ infiltrating cells). FoxP3 expression on CD25+CD4+ T cells were determined by intracellular staining (gated on CD45+CD4+ cells). Group means were calculated and compared with Anova. Error bars denote s.e.m.
On the other hand, high numbers of T cells at the tumor site, especially CD8 T cells, is a key denominator for overall survival (OS) in cancer patients. […] Therefore, it was determined CD8/Treg ratio in TIC in tumor-bearing mice vaccinated with combination peptides or control peptide (described above). […] The cells were then incubated with mAbs to the cell-surface markers (CD45, CD4, CD8, CD25 Then the cells were fixed and permeabilized using Cytofix/Cytoperm solution (ebioscience) for 60 min at 4° C., followed by staining for FoxP3 for 30 min at 4° C. 80,000-100,000 live cell events were acquired on a FACSCantoII (BD) and analyzed using FlowJo software (Tree Star, Inc.). To differentiate TILs from tumor cells, the cells were first gated on CD45^+ cells. Then the CD4^+ (FIG. 20A) and CD8^+ (FIG. 20B) cells were analyzed. Tregs were represented by CD4^+CD25^+FoxP3^+ cells (FIG. 20C). GraphPad software (GraphPad Prism Software, Inc., San Diego, Calif., USA) was utilized for statistical analysis. Group means were calculated and compared with Anova. […]

CD4+CD25+FoxP3+ Tregs = test: Immune-profiling of T cells in spleen and tumor by flow cytometry; assay type: in vivo, Balb/c mice
Method: CD4 and CD8 cells were determined by flow cytometry (gated on CD45+CD3+ cells). Foxp3+CD25+CD4 T regulatory cells were determined by intracellular staining. All CD4 and CD8 T cells were gated on CD45+CD3+ cells. Tregs were gated on CD45+CD3+CD4+ cells. Group A=control peptide, Group B=32-50; Group C=45-64; Group D=73-90; Group E=92-110; Group F=α-mouse PD-1 (positive control).
The tumor and tumor draining lymph nodes were collected for subsequent FACS analysis to study the immune response in mice. Cells suspensions were prepared from tissues either by mechanistic dissociation or by enzymatic digestion. The stained cells were analyzed with a LSR II flow cytometer (BD Biosciences) equipped with 3 excitation lasers at wavelengths 405, 488 and 633 nm. CD8+ T cells and CD4+CD25+ T cells from tumor leucocytes were purified either on a MACS column or FACSAria.
Flow cytometric analysis was performed to evaluate the expression of surface markers (CD45, CD3, CD4, CD8 and CD25) and transcription factor FoxP3 in splenocytes and tumor infiltrating T cells. Briefly, spleens were removed from mice and pressed through cell strainers, followed by a short incubation with red blood cells lysis buffer to lyse the red blood cells. Cells were then collected, washed, and resuspended in staining buffer (1% BSA in PBS). Similarly, tumors were removed from mice and pressed through cell strainers, followed by one wash with 37% percoll. The tumor cells were then washed with PBS and resuspended in staining buffer. The splenocytes and tumor cells were incubated with mAbs to the cell-surface markers for 30 min at 4° C. After washing twice with staining buffer, cells were fixed and permeabilized using Cytofix/Cytoperm solution for 60 min at 4° C. Cells were stained for FoxP3 for 30 min at 4° C. 80,000-100,000 live cell events were acquired on a FACSCanto (BD) and analyzed using FlowJo software (Tree Star, Inc.). To differentiate infiltrating cells from tumor cells, the tumor cells were first gated on CD45+ cells. Then the CD3+CD4+ and CD3+CD8+ cells were analyzed. Tregs were represented by CD4+CD25+FoxP3+ cells. […] Group E had the lowest Treg.

T1 sequence (Q9NZQ7 19-238 limits assumed): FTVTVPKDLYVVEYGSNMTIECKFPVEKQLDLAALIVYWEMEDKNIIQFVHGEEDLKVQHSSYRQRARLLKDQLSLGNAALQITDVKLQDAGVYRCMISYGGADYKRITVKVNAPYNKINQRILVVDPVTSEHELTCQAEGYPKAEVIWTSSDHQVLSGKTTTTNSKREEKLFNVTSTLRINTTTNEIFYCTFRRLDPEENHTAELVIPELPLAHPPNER

Substance: KLLSLIKGVIVHRLEGVE-GPSL-GAISLAPKAQIKESLRAEL-CONH2 (KLLSLIKGVIVHRLEGVEGPSLGAISLAPKAQIKESLRAEL-NH2) [MVF-PD-1 (92-110)]
- binding to immobilized Nivolumab (in words) (Nivolumab): bind
- SPR response of peptide binding to immobilized Nivolumab (Nivolumab; 1 min at 10 μl/min): 970 RU
- binding to immobilized rhPD-L1 (in words) [1]: bind
- SPR response of peptide binding to immobilized rhPD-L1 ([1]; 1 min at 10 μl/min): around 110 RU
- CD4 T cells or Treg cells in TILs, differences among groups ([2]; Anova): no significant differences
- CD8+ T cells in TILs compared to control peptide-vaccinated group ([2]; gated on CD45+ cells, Anova): significantly higher
- CD8/Treg ratio in TILs compared to control peptide-vaccinated group ([2]; mouse, in vivo): increased
- Treg population in spleen compared to Group A (negative control) (CD4+CD25+FoxP3+ Tregs; splenocytes, FIG. 10A): increased Treg population
- Tregs in tumor (CD4+CD25+FoxP3+ Tregs; tumor infiltrating cells, FIG. 10B): lowest Treg
